The values that follow come from patent publication US5262417A, “Antibacterial quinolone compounds” (The Upjohn Company, priority 1991, dated 1993).

Molecules are shown by their SMILES. Converted amounts (≈) assume the structure as drawn. Where two headings read alike, the source gives them in different places.

Experiment in all cases: Minimum inhibitory concentration (MIC) by agar dilution
Common to all, as to assay type: cell-based

The test system of experiment [1] is Escherichia coli. The settings on record: Escherichia coli. As for the experimental part:
(§1) The antibacterial activity of the compounds of Formula IC was determined by using standard testing procedures such as the determination of minimum inhibitory concentration (MIC) by agar dilution as described in "Methods for Dilution Antimicrobial Susceptibility Tests for Bacteria That Grow Aerobically" (MFT) published January 1983 by the National Committee for Clinical Laboratory Standards, 771 East Lancaster Avenue, Villanova, Pa. 19084, USA. Briefly, MIC values are determined in unsupplemented Mueller Hinton Agar (MHA). The compounds tested are diluted serially into molten MHA at 47° C. The agar is poured into petri dishes and allowed to harden. The various bacteria used for testing are grown overnight on MHA at 35° C. and transferred to Trypticase soy broth (TSB) until a turbidity of 0.5 McFarland standard is obtained. The bacteria are diluted one to 20 in TSB and inoculated on the plates (1 μl using a Steers replicator).
as §1, with “Compounds of this invention can also be tested for in vitro antimicrobial” for “The antibacterial”, “activity” for “activity of the compounds of Formula IC was determined by”, “Jan.” for “January”, “Penna.” for “Pa.”, “(1μl” for “(1 μl”, “replicator). […] The MIC test results of selected of Formula B compounds of this invention are found in Tables B2-B9.” for “replicator).”

Experiment [2] concerns Citerobacter freundii. As for the experimental part:
as §1
as §1, with “Compounds of this invention can also be tested for in vitro antimicrobial” for “The antibacterial”, “activity” for “activity of the compounds of Formula IC was determined by”, “Jan.” for “January”, “Penna.” for “Pa.”, “(1μl” for “(1 μl”, “replicator). […] The MIC test results of selected of Formula B compounds of this invention are found in Tables B2-B9.” for “replicator).”

The subject of experiment [3] is Streptococcus pneumoniae. The settings on record: Streptococcus pneumoniae. As for the experimental part: as §1
as §1, with “Compounds of this invention can also be tested for in vitro antimicrobial” for “The antibacterial”, “activity” for “activity of the compounds of Formula IC was determined by”, “Jan.” for “January”, “Penna.” for “Pa.”, “(1μl” for “(1 μl”, “replicator). […] The MIC test results of selected of Formula B compounds of this invention are found in Tables B2-B9.” for “replicator).”

Experiment [4] deals with Streptococcus pyogenes. The settings on record: Streptococcus pyogenes. The protocol:
as §1
as §1, with “Compounds of this invention can also be tested for in vitro antimicrobial” for “The antibacterial”, “activity” for “activity of the compounds of Formula IC was determined by”, “Jan.” for “January”, “Penna.” for “Pa.”, “(1μl” for “(1 μl”, “replicator). […] The MIC test results of selected of Formula B compounds of this invention are found in Tables B2-B9.” for “replicator).”

Experiment [5] deals with Serratia marcescens. To be noted: 20 h, read-out: MINIMUM INHIBITORY CONCENTRATION
As for the experimental part: as §1
as §1, with “Compounds of this invention can also be tested for in vitro antimicrobial” for “The antibacterial”, “activity” for “activity of the compounds of Formula IC was determined by”, “Jan.” for “January”, “Penna.” for “Pa.”, “(1μl” for “(1 μl”, “replicator). […] The MIC test results of selected of Formula B compounds of this invention are found in Tables B2-B9.” for “replicator).”

Experiment [6] has as its system Staphylococcus epidermidis. To be noted: 20 h. As for the experimental part: as §1
as §1, with “Compounds of this invention can also be tested for in vitro antimicrobial” for “The antibacterial”, “activity” for “activity of the compounds of Formula IC was determined by”, “Jan.” for “January”, “Penna.” for “Pa.”, “(1μl” for “(1 μl”, “replicator). […] The MIC test results of selected of Formula B compounds of this invention are found in Tables B2-B9.” for “replicator).”

The subject of experiment [7] is Pseudomonas aeruginosa. To be noted: Pseudomonas aeruginosa. The protocol:
as §1
as §1, with “Compounds of this invention can also be tested for in vitro antimicrobial” for “The antibacterial”, “activity” for “activity of the compounds of Formula IC was determined by”, “Jan.” for “January”, “Penna.” for “Pa.”, “(1μl” for “(1 μl”, “replicator). […] The MIC test results of selected of Formula B compounds of this invention are found in Tables B2-B9.” for “replicator).”

The subject of experiment [8] is Streptococcus faecalis. To be noted: Enterococcus faecalis. As for the experimental part:
as §1
as §1, with “Compounds of this invention can also be tested for in vitro antimicrobial” for “The antibacterial”, “activity” for “activity of the compounds of Formula IC was determined by”, “Jan.” for “January”, “Penna.” for “Pa.”, “(1μl” for “(1 μl”, “replicator). […] The MIC test results of selected of Formula B compounds of this invention are found in Tables B2-B9.” for “replicator).”

The subject of experiment [9] is Staphylococcus aureus. To be noted: Staphylococcus aureus. As for the experimental part:
as §1
as §1, with “Compounds of this invention can also be tested for in vitro antimicrobial” for “The antibacterial”, “activity” for “activity of the compounds of Formula IC was determined by”, “Jan.” for “January”, “Penna.” for “Pa.”, “(1μl” for “(1 μl”, “replicator). […] The MIC test results of selected of Formula B compounds of this invention are found in Tables B2-B9.” for “replicator).”

The test system of experiment [10] is Acinetobacter calcoaceticus. To be noted: Acinetobacter calcoaceticus. As for the experimental part: as §1
as §1, with “Compounds of this invention can also be tested for in vitro antimicrobial” for “The antibacterial”, “activity” for “activity of the compounds of Formula IC was determined by”, “Jan.” for “January”, “Penna.” for “Pa.”, “(1μl” for “(1 μl”, “replicator). […] The MIC test results of selected of Formula B compounds of this invention are found in Tables B2-B9.” for “replicator).”

Experiment [11] concerns Proteus penneri. To be noted: Proteus penneri. As for the experimental part: as §1
as §1, with “Compounds of this invention can also be tested for in vitro antimicrobial” for “The antibacterial”, “activity” for “activity of the compounds of Formula IC was determined by”, “Jan.” for “January”, “Penna.” for “Pa.”, “(1μl” for “(1 μl”, “replicator). […] The MIC test results of selected of Formula B compounds of this invention are found in Tables B2-B9.” for “replicator).”

Experiment [12] relates to Klebsiella pneumoniae. The protocol:
as §1
as §1, with “Compounds of this invention can also be tested for in vitro antimicrobial” for “The antibacterial”, “activity” for “activity of the compounds of Formula IC was determined by”, “Jan.” for “January”, “Penna.” for “Pa.”, “(1μl” for “(1 μl”, “replicator). […] The MIC test results of selected of Formula B compounds of this invention are found in Tables B2-B9.” for “replicator).”

The test system of experiment [13] is Enterobacter cloacae. As for the experimental part:
Briefly, MIC values are determined in unsupplemented Mueller Hinton Agar (MHA). The compounds tested are diluted serially into molten MHA at 47° C. The agar is poured into petri dishes and allowed to harden. The various bacteria used for testing are grown overnight on MHA at 35° C. and transferred to Trypticase soy broth (TSB) until a turbidity of 0.5 McFarland standard is obtained. The bacteria are diluted one to 20 in TSB and inoculated on the plates (1 μl using a Steers replicator).
as §1, with “Compounds of this invention can also be tested for in vitro antimicrobial” for “The antibacterial”, “activity” for “activity of the compounds of Formula IC was determined by”, “Jan. […]” for “January 1983 by the National Committee for Clinical Laboratory Standards, 771 East Lancaster Avenue, Villanova, Pa. 19084, USA.”, “(1μl” for “(1 μl”

The mark [14] stands for this setting: 20 h, read-out: MINIMUM INHIBITORY CONCENTRATION

With `O=C(O)c1cn(C23CC(C2)C3)c2nc(N3CCC(O)C3)c(F)cc2c1=O` (racemic) [No. 91, 7-(3-hydroxy-1-pyrrolidinyl)-1-(bicyclo[1.1.1]pent-1-yl)-1,4-dihydro-6-fluoro-4-oxo-1,8-naphthyridine-3-carboxylic acid], the MIC turned out to be 0.125 µg/mL (≈ 0.348 µM) in experiment [1] (20 h, read-out: MINIMUM INHIBITORY CONCENTRATION, Cult No. 6674, MHA); 0.25 µg/mL (≈ 0.696 µM) in [1] (20 h, read-out: MINIMUM INHIBITORY CONCENTRATION, Cult No. 9451, MHA); 0.25 µg/mL (≈ 0.696 µM) in experiment [1] (20 h, read-out: MINIMUM INHIBITORY CONCENTRATION, Cult No. 9855, MHA); 0.125 µg/mL (≈ 0.348 µM) in [1] (20 h, read-out: MINIMUM INHIBITORY CONCENTRATION, Cult No. 9952, MHA); 0.25 µg/mL (≈ 0.696 µM) in experiment [2] (setting [14]); 1 µg/mL (≈ 2.78 µM) in [3] (20 h, read-out: MINIMUM INHIBITORY CONCENTRATION, Cult No. 41, MHA). In addition, the MIC came to 2 µg/mL (≈ 5.57 µM) in experiment [4] (20 h, read-out: MINIMUM INHIBITORY CONCENTRATION, Cult No. 152, MHA); 1 µg/mL (≈ 2.78 µM) in [5]; 0.125 µg/mL (≈ 0.348 µM) in [6] (read-out: MINIMUM INHIBITORY CONCENTRATION); 4 µg/mL (≈ 11.1 µM) in [7] (20 h, read-out: MINIMUM INHIBITORY CONCENTRATION, Cult No. 6676, MHA); 2 µg/mL (≈ 5.57 µM) in [7] (20 h, read-out: MINIMUM INHIBITORY CONCENTRATION, Cult No. 9191, MHA); 2 µg/mL (≈ 5.57 µM) in experiment [7] (20 h, read-out: MINIMUM INHIBITORY CONCENTRATION, Cult No. 12120, MHA). Also, the MIC in experiment [8] (setting [14]) is 1 µg/mL (≈ 2.78 µM); in experiment [9] (20 h, read-out: MINIMUM INHIBITORY CONCENTRATION, Cult No. 6685, MHA), 0.06 µg/mL (≈ 0.167 µM); in experiment [9] (20 h, read-out: MINIMUM INHIBITORY CONCENTRATION, Cult No. 9213, MHA), 0.125 µg/mL (≈ 0.348 µM); in experiment [9] (20 h, read-out: MINIMUM INHIBITORY CONCENTRATION, Cult No. 9218, MHA), 0.125 µg/mL (≈ 0.348 µM); in experiment [9] (20 h, read-out: MINIMUM INHIBITORY CONCENTRATION, Cult No. 9271, MHA), 0.125 µg/mL (≈ 0.348 µM); in [10] (20 h, read-out: MINIMUM INHIBITORY CONCENTRATION, Cult No. 12170, MHA), 0.5 µg/mL (≈ 1.39 µM). In addition, the MIC is 1 µg/mL (≈ 2.78 µM) in experiment [11] (20 h, read-out: MINIMUM INHIBITORY CONCENTRATION, Cult No. 9679, MHA); 0.5 µg/mL (≈ 1.39 µM) in [12] (setting [14]); 0.25 µg/mL (≈ 0.696 µM) in [13] (setting [14]).

For the molecule `C#CC(C)(C)n1cc(C(=O)O)c(=O)c2cc(F)c(N3CCNCC3)c(F)c21.CS(=O)(=O)O` [A, (+,-)-6,8-difluoro-1,4-dihydro-1-(1,1-dimethyl-2-propynyl)-4-oxo-7-(1-piperazinyl)-3-quinolinecarboxylic acid methanesulfonate], the MIC in experiment [1] (UC6674, 20 h, read-out: Minimum Inhibitory Concentration, E. coli UC 6674, Table CI) worked out at 0.25 µg/mL; in experiment [1] (UC9451, 20 h, read-out: Minimum Inhibitory Concentration, E. coli UC 9451, Table CI), 0.25 µg/mL; in experiment [1] (UC9855, 20 h, read-out: Minimum Inhibitory Concentration, E. coli UC 9855, Table CI), 0.25 µg/mL; in experiment [1] (UC9952, 20 h, read-out: Minimum Inhibitory Concentration, E. coli UC 9952, Table CI), 0.25 µg/mL; in experiment [2] (Citrobacter freundii, UC3507, 20 h, read-out: Minimum Inhibitory Concentration) it was 0.25 µg/mL; in [3] (UC41, 20 h, read-out: Minimum Inhibitory Concentration, S. pneumoniae UC 41, Table CI) it was 8 µg/mL. In addition, the MIC in experiment [4] (UC152, 20 h, read-out: Minimum Inhibitory Concentration, S. pyogenes UC 152, Table CI) worked out at 8 µg/mL; in experiment [5], 2 µg/mL; in experiment [6] (read-out: Minimum Inhibitory Concentration) it was 1 µg/mL; in experiment [7] (UC6676, 20 h, read-out: Minimum Inhibitory Concentration, Ps. aeruginosa UC 6676, Table CI), 4 µg/mL; in [7] (UC9191, 20 h, read-out: Minimum Inhibitory Concentration, Ps. aeruginosa UC 9191, Table CI), 2 µg/mL; in [7] (UC12120, 20 h, read-out: Minimum Inhibitory Concentration, Ps. aeruginosa UC 12120, Table CI) it was 2 µg/mL. Moreover, the MIC in experiment [8] (UC9217, 20 h, read-out: Minimum Inhibitory Concentration) is 8 µg/mL; in [9] (UC6685, 20 h, read-out: Minimum Inhibitory Concentration, S. aureus UC 6685, Table CI) it was 2 µg/mL; in experiment [9] (UC9213, 20 h, read-out: Minimum Inhibitory Concentration, S. aureus UC 9213, Table CI), 4 µg/mL; in experiment [9] (UC9218, 20 h, read-out: Minimum Inhibitory Concentration, S. aureus UC 9218, Table CI) it was 2 µg/mL; in experiment [9] (UC9271, 20 h, read-out: Minimum Inhibitory Concentration, S. aureus UC 9271, Table CI), 2 µg/mL; in experiment [10] (UC12170, 20 h, read-out: Minimum Inhibitory Concentration, A. calcoaceticus UC 12170, Table CI), 1 µg/mL. Moreover, the MIC stood at 1 µg/mL in experiment [11] (UC9679, 20 h, read-out: Minimum Inhibitory Concentration, P. penneri UC 9679, Table CI); 0.5 µg/mL in experiment [12] (UC12081, 20 h, read-out: Minimum Inhibitory Concentration); 0.25 µg/mL in [13] (UC9382, 20 h, read-out: Minimum Inhibitory Concentration).
